Laboratory results as given in US20050112573A1, “Method of detecting toxic substance” (priority 2001, published 2005).

Tested on: yeast genes (level of expressed mRNA)
Experiment: DNA chip analysis of expressed mRNA of yeast genes after 2 h culture with a toxic chemical substance
Format: cell-based, Saccharomyces cerevisiae S288C
Conditions: for The level of expressed mRNA in the presence of chemical substance/ (ratio to absence of chemical substance): stress protein genes, DNA chip; for The level of expressed mRNA in the presence of chemical substance/ in its absence, gene YPR184W: yeast gene YPR184W
Protocol: Yeast (Saccharomyces cerevtisiae S288C (α SUC2mal mel gap2 CUP1)) were cultured at 25° C. on YPD medium (yeast extract 1%, polypepton 2%, glucose 2%). One of toxic chemical substances was added to the cell at logarithmic growth phase, and the cell was further cultured for two hours. Cell was cultured without any chemical substance in the same condition, and was used as control. Concentrations of the chemical substances were defined to inhibit the growth of the yeast but not lead to death.
After the completion of cultivation, the culture was centrifuged to collect the cells. To the cells, sodium acetate buffer (50 mM sodium acetate, 10 mM EDTA, 1% SDS) was added, and the mixture was shaken at 65° C. for five minutes, followed by returning to room temperature, and obtaining the supernatant, which procedure was repeated two times. To the supernatant, ½ amount of a solution of phenol/chloroform was added, and the mixture was centrifuged to give a supernatant, which was added with an equal amount of chloroform, and the mixture was centrifuged to give a supernatant. To the supernatant, an equal amount of isopropanol containing 0.3 M sodium acetate was added, and the mixture was allowed to stand at room temperature for 30 minutes, after which the mixture was centrifuged to give a sediment of the whole RNAs. Seventy % ethanol was added to the sediment, and the mixture was again centrifuged to give a sediment, which was then dried and dissolved in water. mRNA was isolated from the whole RNAs as followings. In view of the fact that a poly A chain is attached to the 3′ terminus of mRNA, a polynucleotide having a poly T structure which was immobilized on the surface of latex beads was used to trap the mRNA, and then the mRNA was washed and eluted with spine column (Oligotex-dT30<Super>mRNA Purification Kit, Takara). Reverse transcription of the mRNA was conducted with a reverse transcriptase (Super Script II Reverse Transcriptase; catalogue No. 18064-014, GibcoBRL) using fluorescence-labeled nucleotides to give cDNAs that were introduced with Cy3-dUTP or Cy5-dUTP during the reverse transcription.
The labeled cDNAs were dissolved in TE buffer (10 mM Tris-HCl/1 mM EDTA, pH8.0), and the solution was dropped on the DNA chip containing the whole genes of yeast (DNA Chip Research Inc. Japan) so that the cDNAs were hybridized on the DNA chip at 65° C. for over 12 hours. The fluoresces intensity of the DNA chip was read with a scanner, and the ratio relative to the fluorescence intensity resulting from the absence of chemical substance was estimated as the following, which is shown in Tables 1 to 9: [formula]
In the Tables, “Intensity” indicated in the rightmost column is a value of the level of expressed mRNA of each gene in control cells as divided by the average level of the expressions of the whole genes.

`C=CC=O` [(14), acrolein] was tested, and the “The level of expressed mRNA in the presence of chemical substance/The level of expressed mRNA in the absence of chemical substance” value (yeast gene YNL006W) was 0.8, the “The level of expressed mRNA in the presence of chemical substance/The level of expressed mRNA in the absence of chemical substance” value (yeast gene YNL007C) was 0.4 and the “The level of expressed mRNA in the presence of chemical substance/ (in its absence), gene YNL025C” value (yeast gene YNL025C, ratio of DNA chip fluorescence intensity to that without chemical substance) was 1.2. The “The level of expressed mRNA in the presence of chemical substance/ (ratio to absence of chemical substance)” value (yeast gene YNL064C) was 0.8, the “The level of expressed mRNA in the presence of chemical substance/ (ratio to absence), gene YNL073W” value (yeast gene YNL073W, mitochondria-located protein genes, 2 h culture with chemical) was 0.7 and the “The level of expressed mRNA in the presence of chemical substance/The level of expressed mRNA in the absence of chemical substance” value (yeast gene YNL093W) was 1.1. The “The level of expressed mRNA in the presence of chemical substance/ (in its absence), gene YNL192W” value (yeast gene YNL192W, ratio of DNA chip fluorescence intensity to that without chemical substance) was 0.7, the “The level of expressed mRNA in the presence of chemical substance/The level of expressed mRNA in the absence of chemical substance” value (yeast gene YNL333W) was 1.9 and the “The level of expressed mRNA in the presence of chemical substance/The level of expressed mRNA in the absence of chemical substance” value (yeast gene YNR010W) was 1.3. The “The level of expressed mRNA in the presence of chemical substance/The level of expressed mRNA in the absence of chemical substance” value (yeast gene YNR069C) was 2.1, the “The level of expressed mRNA in the presence of chemical substance/ (in its absence), gene YNR072W” value (yeast gene YNR072W, ratio of DNA chip fluorescence intensity to that without chemical substance) was 1.0 and the “The level of expressed mRNA in the presence of chemical substance/ (ratio to absence of chemical substance)” value (yeast gene YNR076W) was 0.8. The “The level of expressed mRNA in the presence of chemical substance/The level of expressed mRNA in the absence of chemical substance” value (yeast gene YOL013C) was 0.9, the “The level of expressed mRNA in the presence of chemical substance/ (ratio to absence), gene YOL096C” value (yeast gene YOL096C, mitochondria-located protein genes, 2 h culture with chemical) was 1.4 and the “The level of expressed mRNA in the presence of chemical substance/ (in its absence), gene YOL096C” value (yeast gene YOL096C, ratio of DNA chip fluorescence intensity to that without chemical substance) was 1.4. The “The level of expressed mRNA in the presence of chemical substance/ (in its absence), gene YOL108C” value (yeast gene YOL108C, ratio of DNA chip fluorescence intensity to that without chemical substance) was 0.9, the “The level of expressed mRNA in the presence of chemical substance/ (in its absence), gene YOL116W” value (yeast gene YOL116W, ratio of DNA chip fluorescence intensity to that without chemical substance) was 0.9 and the “The level of expressed mRNA in the presence of chemical substance/ (ratio to absence of chemical substance)” value (yeast gene YOL161C) was 0.9. The “The level of expressed mRNA in the presence of chemical substance/The level of expressed mRNA in the absence of chemical substance” value (yeast gene YOL164W) was 1.3, the “The level of expressed mRNA in the presence of chemical substance/ (ratio to absence of chemical substance)” value (yeast gene YOR008C) was 0.9 and the “The level of expressed mRNA in the presence of chemical substance/ (ratio to absence of chemical substance)” value (yeast gene YOR009W) was 0.7. For the same compound, the “The level of expressed mRNA in the presence of chemical substance/ (ratio to absence of chemical substance)” value (yeast gene YOR010C) was 0.4, the “The level of expressed mRNA in the presence of chemical substance/The level of expressed mRNA in the absence of chemical substance” value (yeast gene YOR036W) was 1.2 and the “The level of expressed mRNA in the presence of chemical substance/ (in its absence), gene YOR103C” value (yeast gene YOR103C, ratio of DNA chip fluorescence intensity to that without chemical substance) was 1.2. The “The level of expressed mRNA in the presence of chemical substance/The level of expressed mRNA in the absence of chemical substance” value (yeast gene YOR117W) was 1.0, the “The level of expressed mRNA in the presence of chemical substance/The level of expressed mRNA in the absence of chemical substance” value (yeast gene YOR124C) was 0.8 and the “The level of expressed mRNA in the presence of chemical substance/The level of expressed mRNA in the absence of chemical substance” value (yeast gene YOR132W) was 0.7. The “The level of expressed mRNA in the presence of chemical substance/The level of expressed mRNA in the absence of chemical substance” value (yeast gene YOR157C) was 2.2, the “The level of expressed mRNA in the presence of chemical substance/ (in its absence), gene YOR180C” value (yeast gene YOR180C, ratio of DNA chip fluorescence intensity to that without chemical substance) was 1.0 and the “The level of expressed mRNA in the presence of chemical substance/The level of expressed mRNA in the absence of chemical substance” value (yeast gene YOR181W) was 0.9. For the same compound, the “The level of expressed mRNA in the presence of chemical substance/The level of expressed mRNA in the absence of chemical substance” value (yeast gene YOR185C) was 2.1, the “The level of expressed mRNA in the presence of chemical substance/The level of expressed mRNA in the absence of chemical substance” value (yeast gene YOR198C) was 1.1 and the “The level of expressed mRNA in the presence of chemical substance/ (in its absence), gene YOR251C” value (yeast gene YOR251C, ratio of DNA chip fluorescence intensity to that without chemical substance) was 1.1. The “The level of expressed mRNA in the presence of chemical substance/The level of expressed mRNA in the absence of chemical substance” value (yeast gene YOR259C) was 1.2, the “The level of expressed mRNA in the presence of chemical substance/The level of expressed mRNA in the absence of chemical substance” value (yeast gene YOR261C) was 1.8 and the “The level of expressed mRNA in the presence of chemical substance/The level of expressed mRNA in the absence of chemical substance” value (yeast gene YOR288C) was 0.8. For the same compound, the “The level of expressed mRNA in the presence of chemical substance/ (ratio to absence), gene YOR316C” value (yeast gene YOR316C, mitochondria-located protein genes, 2 h culture with chemical) was 1.0, the “The level of expressed mRNA in the presence of chemical substance/ (in its absence), gene YOR348C” value (yeast gene YOR348C, ratio of DNA chip fluorescence intensity to that without chemical substance) was 1.2 and the “The level of expressed mRNA in the presence of chemical substance/The level of expressed mRNA in the absence of chemical substance” value (yeast gene YOR355W) was 0.6. The “The level of expressed mRNA in the presence of chemical substance/ (in its absence), gene YOR363C” value (yeast gene YOR363C, ratio of DNA chip fluorescence intensity to that without chemical substance) was 0.9, the “The level of expressed mRNA in the presence of chemical substance/The level of expressed mRNA in the absence of chemical substance” value (yeast gene YOR383C) was 0.6 and the “The level of expressed mRNA in the presence of chemical substance/ (ratio to absence), gene YPL040C” value (yeast gene YPL040C, mitochondria-located protein genes, 2 h culture with chemical) was 1.1. For the same compound, the “The level of expressed mRNA in the presence of chemical substance/ (ratio to absence of chemical substance)” value (yeast gene YPL059W) was 1.3, the “The level of expressed mRNA in the presence of chemical substance/The level of expressed mRNA in the absence of chemical substance” value (yeast gene YPL089C) was 0.8 and the “The level of expressed mRNA in the presence of chemical substance/The level of expressed mRNA in the absence of chemical substance” value (yeast gene YPL109C) was 1.3. The “The level of expressed mRNA in the presence of chemical substance/ (ratio to absence), gene YPL134C” value (yeast gene YPL134C, mitochondria-located protein genes, 2 h culture with chemical) was 1.4, the “The level of expressed mRNA in the presence of chemical substance/ (ratio to absence of chemical substance)” value (yeast gene YPL140C) was 1.1 and the “The level of expressed mRNA in the presence of chemical substance/ (in its absence), gene YPL148C” value (yeast gene YPL148C, ratio of DNA chip fluorescence intensity to that without chemical substance) was 1.6. The “The level of expressed mRNA in the presence of chemical substance/The level of expressed mRNA in the absence of chemical substance” value (yeast gene YPL149W) was 1.0, the “The level of expressed mRNA in the presence of chemical substance/The level of expressed mRNA in the absence of chemical substance” value (yeast gene YPL154C) was 0.8 and the “The level of expressed mRNA in the presence of chemical substance/ (ratio to absence of chemical substance)” value (yeast gene YPL194W) was 1.1. The “The level of expressed mRNA in the presence of chemical substance/ (ratio to absence of chemical substance)” value (yeast gene YPR005C) was 1.3, the “The level of expressed mRNA in the presence of chemical substance/The level of expressed mRNA in the absence of chemical substance” value (yeast gene YPR103W) was 1.8 and the “The level of expressed mRNA in the presence of chemical substance/The level of expressed mRNA in the absence of chemical substance” value (yeast gene YPR108W) was 1.0. The “The level of expressed mRNA in the presence of chemical substance/ (in its absence), gene YPR165W” value (yeast gene YPR165W, ratio of DNA chip fluorescence intensity to that without chemical substance) was 1.0, the “The level of expressed mRNA in the presence of chemical substance/ in its absence, gene YPR184W” value (energy system protein genes, 2 h culture with the chemical, ratio to control without chemical) was 1.3 and the “The level of expressed mRNA in the presence of chemical substance/ in its absence, gene YPR184W” value (ratio of DNA chip fluorescence intensity to that without chemical substance) was 1.3.
